In ChEMBL document CHEMBL5584237, “Design, synthesis, biological evaluation, and in silico studies of novel pyridopyridine derivatives as anticancer candidates targeting FMS kinase” (Eur J Med Chem, 2024):

Assays:
[1] = system: SNB-75; assay: Antiproliferative activity against human SNB-75 cells assessed as cell growth inhibition; type: functional
[2] = system: RXF 393; assay: Antiproliferative activity against human RXF 393 cells assessed as cell growth inhibition; type: functional
[3] = Selectivity index, ratio of IC50 for human WI-38 cells to IC50 for human HT-29 cells; type: toxicity; details: WI-38 cells and HT-29 cells, read-out: Ratio IC50
[4] = system: Hep 3B2; assay: Induction of apoptosis in human Hep3B cells assessed as increase in cleaved PARP expression measured after 48 hrs by Western blot analysis; type: functional, cell-based
[5] = system: Hep 3B2; assay: Induction of apoptosis in human Hep3B cells assessed as increase in cleaved caspase-3 expression at 3.38 uM measured after 48 hrs by Western blot analysis relative to control; type: functional
[6] = Selectivity index, ratio of IC50 for human HS27 cells to IC50 for human LOX IMVI cells
[7] = Selectivity index, ratio of IC50 for human HS27 cells to IC50 for human NCI-H460 cells

## CCN1CCN(c2ccc(NC(=O)Nc3ccc(-c4cc(C(=O)NC(C)C)c5ncccc5n4)cc3)cc2C(F)(F)F)CC1
[1]
  GI50: 0.98 µM
  TGI: 5.14 µM
[2]
  GI50: 0.65 µM
  TGI: 1.73 µM
[3]
  selectivity ratio: 18.8
[4]
  Activity: Dose-Dependent Effect
[5]
  fold change (FC): 473.5
[6]
  Ratio IC50: 4.47
[7]
  Ratio IC50: 3.32
